Data set [1] can be described thus: Cmax in ICR mouse at 10 mg/kg, po measured for 0.083 to 24 hrs by LC-MS/MS analysis. It counts as ADME, organism-based. The arrangement: time upper 24 hrs, time lower 0.083 hrs, dose 10 mg/kg, route po. The conditions noted are these: in vivo.
Data set [2] concerns Mus musculus. The data set can be described thus: Antiatherosclerotic activity in high-fat diet fed ApoE-/- mouse assessed as reduction in plasma total cholesterol level at 12 to 40 mg/kg, ip bid measured after 8 weeks. The conditions noted are these: dose 12-40 mg/kg. The format is functional, organism-based.
The nature of data set [3]: Cmax in ICR mouse at 1 mg/kg, iv measured for 0.083 to 24 hrs by LC-MS/MS analysis. The arrangement: time lower 0.083 hrs, dose 1 mg/kg, time upper 24 hrs, route iv. The settings on record: in vivo. It counts as ADME, organism-based.
The subject of data set [4] is Mus musculus. The data set can be described thus: Antiatherosclerotic activity in high-fat diet fed ApoE-/- mouse assessed as reduction in plasma LDL-C level at 12 to 40 mg/kg, ip bid measured after 8 weeks. The settings on record: dose 12-40 mg/kg. It counts as functional, organism-based.
In data set [5] the test system is Mus musculus. Nature of the data set: In vivo inhibition of aSMase in C57BL/6 mouse assessed as decrease in liver sphingomyelin level at 6 to 40 mg/kg, ip bid for 1 week by ELISA method. The format is functional, organism-based. The settings on record: dose 6-40 mg/kg, time 1.0 weeks. A general note: ELISA stands for enzyme-linked immunosorbent assay.
The subject of data set [6] is HUVEC. Nature of the data set: Effect on extracellular S1P level in LPS-induced HUVEC cells upto 5 uM measured after 22 hrs by ELISA method. The format is functional, cell-based. The settings on record: Homo sapiens.
In data set [7] the test system is HUVEC. The data set can be described thus: Antiinflammatory activity against HUVEC cells assessed as decrease in LPS-induced TNF-alpha level measured after 22 hrs by ELISA method. The format is functional, cell-based. The conditions noted are these: Homo sapiens, dose 1-5 µM.
Data set [8] is described as follows: MRT (0 to t) in ICR mouse at 10 mg/kg, po measured for 0.083 to 24 hrs by LC-MS/MS analysis. The format is ADME, organism-based. The settings on record: in vivo, time 0.083-24 hrs.
Data set [9] is described as follows: MRT (0 to t) in ICR mouse at 1 mg/kg, iv measured for 0.083 to 24 hrs by LC-MS/MS analysis. The format is ADME, organism-based. The settings on record: in vivo, time 0.083-24 hrs.
The test system of data set [10] is Mus musculus. Nature of the data set: Antiatherosclerotic activity in high-fat diet fed ApoE-/- mouse assessed as reduction in plasma Ox-LDL-C level at 40 mg/kg, ip bid measured after 8 weeks. The format is functional, organism-based.
The nature of data set [11]: Half life in ICR mouse at 1 mg/kg, iv measured for 0.083 to 24 hrs by LC-MS/MS analysis. The format is ADME, organism-based. The settings on record: in vivo, time 0.083-24 hrs.
For data set [12], the system named is Mus musculus. The data set can be described thus: In vivo inhibition of aSMase in C57BL/6 mouse assessed as decrease in plasma ceramide level at 6 to 40 mg/kg, ip bid for 1 week by ELISA method. It counts as functional, organism-based. The conditions noted are these: dose 6-40 mg/kg, time 1.0 weeks.
Data set [13] has as its system Mus musculus. The data set can be described thus: In vivo inhibition of aSMase in C57BL/6 mouse assessed as decrease in plasma S1P level at 6 to 40 mg/kg, ip bid for 1 week by ELISA method. The conditions noted are these: dose 6-40 mg/kg, time 1.0 weeks. It counts as functional, organism-based.
The nature of data set [14]: Clearance in ICR mouse at 1 mg/kg, iv measured for 0.083 to 24 hrs by LC-MS/MS analysis. The conditions noted are these: in vivo, time 0.083-24 hrs. It counts as ADME, organism-based.
Data set [15] concerns Mus musculus. The data set can be described thus: In vivo inhibition of aSMase in C57BL/6 mouse assessed as decrease in plasma sphingomyelin level at 6 to 40 mg/kg, ip bid for 1 week by ELISA method. The format is functional, organism-based. The settings on record: dose 6-40 mg/kg, time 1.0 weeks.
Data set [16] has as its system Mus musculus. The data set can be described thus: Antiatherosclerotic activity in high-fat diet fed ApoE-/- mouse assessed as reduction in lipid plaque area administered intraperitoneally twice daily measured after 8 weeks by oil red O staining based analysis. The format is functional, organism-based. The conditions noted are these: dose 12-40 mg/kg, route ip.
Data set [17] deals with HUVEC. Nature of the data set: Antiinflammatory activity against HUVEC cells assessed as decrease in Ox-LDL-induced MCP-1 mRNA level at 5 uM measured after 22 hrs by RT-PCR analysis. It counts as functional, cell-based. The settings on record: Homo sapiens.
Data set [18] is described as follows: Apparent volume of distribution in ICR mouse at 1 mg/kg, iv measured for 0.083 to 24 hrs by LC-MS/MS analysis. The format is ADME, organism-based. The settings on record: in vivo, time 0.083-24 hrs, read-out: Vz.
For data set [19], the system named is HUVEC. The data set can be described thus: Downregulation of intracellular ceramide level in LPS-induced HUVEC cells at 5 uM measured after 22 hrs by ELISA method. The settings on record: Homo sapiens. It counts as functional, cell-based.

Active and inactive are the calls of the source. No cut-off for these calls is given here.

`O=C(NO)c1nc(-c2ccc(COc3ccc(Br)cc3)cc2)no1`: the highest concentration (Cmax) in data set [1] was 2760 ng/mL; in [3] it was 787 ng/mL. In addition, the result in data set [2], in data set [6] and in data set [13] was inactive. Moreover, the result in data set [4], in data set [5], in data set [10], in data set [12], in data set [15] and in [17] was Active. The outcome in data set [19] was Active. The Activity result in data set [7] and in data set [16] was “Dose-Dependent Effect” in each case. Further, the MRT last in data set [8] turned out to be 19.2 min; in [9], 4.62 min. This compound showed a half-life in data set [11] of 12 min. Moreover, in data set [14], the clearance was 73.2 mL/min/kg. Besides, the Vd in [18] stood at 1.28 L/kg.

One may read the Cmax as the highest concentration seen after dosing. By MRT last is commonly meant a mean duration of stay, worked out from the concentration-time curve. For orientation: half-life means how long it takes for the measured level to halve. Low values mean rapid decline, high ones slow decline. Usually clearance stands for a measure of how efficiently the substance is removed, as volume per time. A lower clearance goes with a low capacity for elimination.

These data come from ChEMBL document CHEMBL5380809, “Discovery of Novel N-Hydroxy-1,2,4-oxadiazole-5-formamides as ASM Direct Inhibitors for the Treatment of Atherosclerosis” (J Med Chem, 2023).
